# Reference: patent US7803930B2, “Antisense modulation of apolipoprotein B-expression” (Isis Pharmaceuticals, Inc., priority 2002, dated 2010)
# Assays:
# [1] = tested on: PTEN; test: ob/ob mice (Example 50): PTEN levels; type: in vivo, mouse; conditions: high fat high cholesterol diet, 50 mg/kg i.p. twice a week, six weeks
# Experimental: (§1) Ob/ob mice receiving a high fat, high cholesterol diet (60% kcal fat supplemented with 0.15% cholesterol) were treated with one of several oligonucleotides to evaluate their effect on apolipoprotein B-related phenotypic endpoints in ob/ob mice. After overnight fasting, mice from each group were dosed intraperitoneally twice a week with 50 mg/kg of ISIS 147483 (SEQ ID NO: 79), or 147764 (SEQ ID NO: 109), or the controls ISIS 116847 (SEQ ID NO: 857), or 141923 (SEQ ID NO: 858), or saline for six weeks. At study termination and forty eight hours after the final injections, animals were sacrificed and evaluated for target mRNA levels in liver, cholesterol and triglyceride levels, liver enzyme levels, serum glucose levels, and PTEN levels.
# [2] = ob/ob mice (Example 50): cholesterol, lipid, triglyceride, liver enzyme and glucose levels; type: in vivo, mouse; conditions: high fat high cholesterol diet, 50 mg/kg i.p. twice a week, six weeks
# Experimental: as §1
# [3] = tested on: apolipoprotein B mRNA; test: ob/ob mice (Example 50): apolipoprotein B mRNA levels in liver; type: in vivo, mouse; conditions: liver, high fat high cholesterol diet, 50 mg/kg i.p. twice a week, six weeks
# Experimental: as §1
# [4] = tested on: mouse apolipoprotein B mRNA; test: Inhibition of mouse apolipoprotein B mRNA levels in primary mouse hepatocytes, real-time PCR; type: cell-based
# Experimental: Primary mouse hepatocytes were prepared from CD-1 mice purchased from Charles River Labs (Wilmington, Mass.) and were routinely cultured in Hepatoyte Attachment Media (Gibco) supplemented with 10% Fetal Bovine Serum (Gibco/Life Technologies, Gaithersburg, Md.), 250 nM dexamethasone (Sigma), and 10 nM bovine insulin (Sigma). Cells were seeded into 96-well plates (Falcon-Primaria #3872) at a density of 10000 cells/well for use in RT-PCR analysis.
# When cells reached 80% confluency, they were treated with oligonucleotide. For cells grown in 96-well plates, wells were washed once with 200 μL OPTI-MEM™-1 reduced-serum medium (Gibco BRL) and then treated with 130 μL of OPTI-MEM™-1 containing 3.75 μg/mL LIPOFECTIN™ (Gibco BRL) and the desired concentration of oligonucleotide. After 4-7 hours of treatment, the medium was replaced with fresh medium. Cells were harvested 16-24 hours after oligonucleotide treatment.
# Quantitation of apolipoprotein B mRNA levels was determined by real-time quantitative PCR using the ABI PRISM™ 7700 Sequence Detection System (PE-Applied Biosystems, Foster City, Calif.) according to manufacturer's instructions. This is a closed-tube, non-gel-based, fluorescence detection system which allows high-throughput quantitation of polymerase chain reaction (PCR) products in real-time. As opposed to standard PCR, in which amplification products are quantitated after the PCR is completed, products in real-time quantitative PCR are quantitated as they accumulate. This is accomplished by including in the PCR reaction an oligonucleotide probe that anneals specifically between the forward and reverse PCR primers, and contains two fluorescent dyes. A reporter dye (e.g., JOE, FAM, or VIC, obtained from either Operon Technologies Inc., Alameda, Calif. or PE-Applied Biosystems, Foster City, Calif.) is attached to the 5′ end of the probe and a quencher dye (e.g., TAMRA, obtained from either Operon Technologies Inc., Alameda, Calif. or PE-Applied Biosystems, Foster City, Calif.) is attached to the 3′ end of the probe. When the probe and dyes are intact, reporter dye emission is quenched by the proximity of the 3′ quencher dye. During amplification, annealing of the probe to the target sequence creates a substrate that can be cleaved by the 5′-exonuclease activity of Taq polymerase. […] With each cycle, additional reporter dye molecules are cleaved from their respective probes, and the fluorescence intensity is monitored at regular intervals by laser optics built into the ABI PRISM™ 7700 Sequence Detection System. In each assay, a series of parallel reactions containing serial dilutions of mRNA from untreated control samples generates a standard curve that is used to quantitate the percent inhibition after antisense oligonucleotide treatment of test samples.
# Probes and primers to mouse apolipoprotein B were designed to hybridize to a mouse apolipoprotein B sequence, using published sequence information (GenBank accession number M35186, incorporated herein as SEQ ID NO: 10). For mouse apolipoprotein B the PCR primers were: forward primer: CGTGGGCTCCAGCATTCTA (SEQ ID NO: 11) reverse primer: […] (SEQ ID NO: 12) and the PCR probe was: FAM-[…]-TAMRA SEQ ID NO: 13) where FAM (PE-Applied Biosystems, Foster City, Calif.) is the fluorescent reporter dye) and TAMRA (PE-Applied Biosystems, Foster City, Calif.) is the quencher dye. For mouse GAPDH the PCR primers were: forward primer: […] (SEQ ID NO: 14) reverse primer: […] (SEQ ID NO:15) and the PCR probe was: 5′ JOE-[…]-TAMRA 3′ (SEQ ID NO: 16) where JOE (PE-Applied Biosystems, Foster City, Calif.) is the fluorescent reporter dye) and TAMRA (PE-Applied Biosystems, Foster City, Calif.) is the quencher dye.
# In accordance with the present invention, a series of oligonucleotides was designed to target different regions of the mouse apolipoprotein B RNA, using published sequence (GenBank accession number M35186, incorporated herein as SEQ ID NO: 10). […]
# [5] = High fat fed C57BL/6 mice, 6 week timecourse: serum cholesterol, triglyceride, lipoprotein and glucose levels; type: in vivo, mouse; conditions: for Percent Inhibition HDL / Percent Inhibition LDL / Percent Inhibition VLDL: 20 mg/kg daily oral, negative = increase
# Experimental: Male C57BL/6 mice (n=8) receiving a high fat diet (60% kcal fat) were evaluated over the course of 6 weeks for the effects of treatment with the antisense oligonucleotide, ISIS 147764. Control animals received saline treatment (50 mg/kg). A subset of animals received a daily oral dose (20 mg/kg) atorvastatin calcium (Lipitor®, Pfizer Inc.). All mice, except atorvastatin-treated animals, were dosed intraperitoneally every three days (twice a week), after fasting overnight, with 5, 25, 50 mg/kg ISIS 147764 (SEQ ID No: 109) or saline (50 mg/kg) for six weeks. Serum cholesterol and lipoproteins were analyzed at 0, 2 and 6 week interim timepoints. At study termination, animals were sacrificed 48 hours after the final injections and evaluated for levels of target mRNA levels in liver, cholesterol, lipoprotein, triglyceride, liver enzyme (AST and ALT) and serum glucose levels as well as body, liver, spleen and fat pad weights.
# Male C57BL/6 mice (n=8) receiving a high fat diet (60% kcal fat) were evaluated over the course of 6 weeks for the effects of ISIS 147764 on serum cholesterol and triglyceride levels. Control animals received saline treatment (50 mg/kg). Mice were dosed intraperitoneally every three days (twice a week), after fasting overnight, with 5, 25, 50 mg/kg ISIS 147764 (SEQ ID No: 109) or saline (50 mg/kg) for six weeks.
# Values in the table are expressed as percent inhibition and are normalized to the saline control.
# In addition to serum cholesterol, at study termination, animals were sacrificed 48 hours after the final injections and evaluated for triglyceride levels.
# Male C57BL/6 mice (n=8) receiving a high fat diet (60% kcal fat) were evaluated over the course of 6 weeks for the effects of ISIS 147764 on lipoprotein (VLDL, LDL and HDL) levels. Control animals received saline treatment (50 mg/kg). Mice were dosed intraperitoneally every three days (twice a week), after fasting overnight, with 5, 25, 50 mg/kg ISIS 147764 (SEQ ID No: 109) or saline (50 mg/kg) for six weeks.
# Values in the table are expressed as percent inhibition and are normalized to the saline control. Negative values indicate an observed increase in lipoprotein levels.
# Male C57BL/6 mice (n=8) receiving a high fat diet (60% kcal fat) were evaluated over the course of 6 weeks for the effects of ISIS 147764 on serum glucose levels. Control animals received saline treatment (50 mg/kg). Mice were dosed intraperitoneally every three days (twice a week), after fasting overnight, with 5, 25, 50 mg/kg ISIS 147764 (SEQ ID No: 109) or saline (50 mg/kg) for six weeks.
# At study termination, animals were sacrificed 48 hours after the final injections and evaluated for serum glucose levels. […] Mice treated with atorvastatin at a daily oral dose of 20 mg/kg had serum glucose levels of 215 mg/dL.
# [6] = tested on: apolipoprotein B mRNA; test: ApoE knockout mice (Example 28): target mRNA levels in liver; type: in vivo, mouse; conditions: high fat diet, 20 mg/kg daily
# Text: (§2) Female ApoE knockout mice ranged in age from 5 to 7 weeks and were placed on a normal diet for 2 weeks before study initiation. ApoE knockout mice were then fed ad libitum a 60% fat diet, with 0.15% added cholesterol to induce dyslipidemia and obesity. Control animals were maintained on a high-fat diet with no added cholesterol. […]
# (§3) At study termination and forty eight hours after the final injections, animals were sacrificed and evaluated for target mRNA levels in liver by RT-PCR methods verified by Northern Blot analysis, glucose levels, cholesterol and lipid levels by HPLC separation methods and triglyceride and liver enzyme levels (performed by LabCorp Preclinical Services; San Diego, Calif.).
# (§4) Data are normalized to saline controls.
# [7] = tested on: apolipoprotein B mRNA; test: LDLr(-/-) mice dose response (Example 44): apolipoprotein B mRNA; type: in vivo, mouse; conditions: 20 mg/kg, six weeks
# Experimental: LDLr(−/−) mice, purchased from Taconic (Germantown, N.Y.) were used to evaluate antisense oligonucleotides for their potential to lower apolipoprotein B mRNA or protein levels, as well as phenotypic endpoints associated with apolipoprotein B. LDLr(−/−) mice were separated into groups of males and females. LDLr(−/−) mice were dosed intraperitoneally twice a week for six weeks with either 10, 25, or 50 mg/kg of ISIS 147764 (SEQ ID NO: 109) or ISIS 270906 (SEQ ID NO: 856) which is a 4 base mismatch of ISIS 147764, or with saline, or 20 mg/kg of Atorvastatin. At study termination animals were sacrificed and evaluated for several phenotypic markers.
# [8] = type: in vivo, mouse
# Text: as §2, §3, §4
# [9] = High fat fed C57BL/6 mice, 6 week timecourse: serum AST and ALT levels; type: in vivo, mouse; conditions: daily oral dose of 20 mg/kg
# Experimental: Male C57BL/6 mice (n=8) receiving a high fat diet (60% kcal fat) were evaluated over the course of 6 weeks for the effects of ISIS 147764 on liver enzyme (AST and ALT) levels. Increased levels of the liver enzymes ALT and AST indicate toxicity and liver damage. Control animals received saline treatment (50 mg/kg). […] AST and ALT levels were measured at 6 weeks.
# [10] = High fat fed C57BL/6 mice, 6 week timecourse: body, spleen, liver and fat pad weight; type: in vivo, mouse; conditions: 20 mg/kg daily, six weeks, vs saline-treated controls
# Experimental: Male C57BL/6 mice (n=8) receiving a high fat diet (60% kcal fat) were evaluated over the course of 6 weeks for the effects of ISIS 147764 on body, spleen, liver and fat pad weight. Control animals received saline treatment (50 mg/kg). […]
# At study termination, animals were sacrificed 48 hours after the final injections and body, spleen, liver and fat pad weights were measured. Values are expressed as percent change in body weight or ogan weight compared to the saline-treated control animals. Negative values indicated a decrease in weight.
# [11] = ApoE knockout mice, high fat diet, 20 mg/kg daily
compound,measurement,setting,value
"116847 (antisense CTGCTAGCCTCTGGATTTGA; listed as DNA, chemistry not given here) [compound 116847]",mRNA % control PTEN,[1],20.0 % control
same,Glucose,[2],135.5 mg/dL
same,Lipoproteins CHOL,[2],287.5 mg/dL
same,Lipoproteins TRIG,[2],196.5 mg/dL
same,Liver Enzymes ALT,[2],607.5 IU/L
same,Liver Enzymes AST,[2],343.2 IU/L
same,mRNA % control ApoB,[3],77.0 % control
"147483 (ATGTCAATGCCACATGTCCA; phosphorothioate, 2'-MOE wings, chemistry not fully specified) [compound 147483]",mRNA % control PTEN,[1],143.2 % control
same,Glucose,[2],213.2 mg/dL
same,Lipoproteins CHOL,[2],250.0 mg/dL
same,Lipoproteins TRIG,[2],99.8 mg/dL
same,Liver Enzymes ALT,[2],941.7 IU/L
same,Liver Enzymes AST,[2],790.2 IU/L
same,Percent Inhibition 50 nM,"[4]; Table 4, 50 nM",56%
same,Percent Inhibition 150 nM,"[4]; Table 4, 150 nM",88%
same,Percent Inhibition 300 nM,"[4]; Table 4, 300 nM",89%
same,mRNA % control ApoB,[3],25.2 % control
"CC(C)c1c(C(=O)Nc2ccccc2)c(-c2ccccc2)c(-c2ccc(F)cc2)n1CC[C@@H](O)C[C@@H](O)CC(=O)O [atorvastatin, atorvastatin calcium, reference compound]",Percent Inhibition HDL,[5]; 0 weeks,0%
same,Percent Inhibition LDL,[5]; 0 weeks,0%
same,Percent Inhibition VLDL,[5]; 0 weeks,0%
same,Percent Inhibition HDL,[5]; 2 weeks,15%
same,Percent Inhibition LDL,[5]; 2 weeks,10%
same,Percent Inhibition VLDL,[5]; 2 weeks,15%
same,Percent Inhibition HDL,[5]; 6 weeks,20%
same,Percent Inhibition LDL,[5]; 6 weeks,−10%
same,Percent Inhibition VLDL,[5]; 6 weeks,−5%
same,serum glucose levels,[5]; daily oral dose of 20 mg/kg,215 mg/dL
same,decrease in serum cholesterol,"[5]; oral dose of 20 mg/kg, study termination",20%
same,mRNA Percent Inhibition,[6],10%
same,apolipoprotein B mRNA % control,[7]; female LDLr(-/-) mice,109.0 % control
same,apolipoprotein B mRNA % control,[7]; male LDLr(-/-) mice,110.9 % control
same,Cholesterol Levels,[8]; [11],938 mg/dL
same,Glucose Levels,[8]; [11],162 mg/dL
same,Lipoprotein Levels HDL,[8]; [11],42 mg/dL
same,Lipoprotein Levels LDL,[8]; [11],250 mg/dL
same,Lipoprotein Levels VLDL,[8]; [11],653 mg/dL
same,Liver Enzyme Levels ALT,"[8]; mouse, in vivo, 20 mg/kg",76 IU/L
same,Liver Enzyme Levels AST,"[8]; mouse, in vivo, 20 mg/kg",75 IU/L
same,AST levels,[9],85 IU/L
same,AST levels (printed in the ALT paragraph),[9],40 IU/L
same,Percent Change Fat (fat pad weight),[10],7%
same,Percent Change Liver weight,[10],15%
same,Percent Change Spleen weight,[10],10%
same,Percent Change Total Body Wt.,[10],1%
